# Target: GST-tagged recombinant human TYRO3 kinase domain (Homo sapiens (Human), UniProt Q06418)
# Conditions: read-out: TYRO3 enzyme IC50
# GST-tagged recombinant human TYRO3 kinase domain, sequence (Q06418 518-790): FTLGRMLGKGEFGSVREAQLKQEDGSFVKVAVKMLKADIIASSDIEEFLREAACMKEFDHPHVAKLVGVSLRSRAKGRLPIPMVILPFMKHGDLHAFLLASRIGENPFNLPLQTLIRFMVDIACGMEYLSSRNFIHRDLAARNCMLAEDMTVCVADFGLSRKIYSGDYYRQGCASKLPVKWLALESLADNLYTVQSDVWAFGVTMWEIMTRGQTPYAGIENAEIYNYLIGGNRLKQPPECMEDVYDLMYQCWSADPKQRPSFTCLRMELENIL
row,SMILES,IC50 [nM]
1,"COC[C@@H]1CCC[C@@H]1Nc1n[nH]c2nccc(Oc3ccc(NC(=O)c4ccnn(-c5ccc(F)cc5)c4=O)cc3F)c12 (relative stereo) [Example 28, N-(3-fluoro-4-((3-((cis-2-(methoxymethyl)cyclopentyl)amino)-1H-pyrazolo[3,4-b]pyridin-4-yl)oxy)phenyl)-2-(4-fluorophenyl)-3-oxo-2,3-dihydropyridazine-4-carboxamide]",375
2,"O=C(Nc1ccc(Oc2ccnc3[nH]nc(NC4CC(F)(F)C4)c23)c(F)c1)c1ccnn(-c2ccc(F)cc2)c1=O [Example 12, N-(4-((3-((3,3-difluorocyclobutyl)amino)-1H-pyrazolo[3,4-b]pyridin-4-yl)oxy)-3-fluorophenyl)-2-(4-fluorophenyl)-3-oxo-2,3-dihydropyridazine-4-carboxamide]",295
3,"COCC(C)(C)Nc1n[nH]c2nccc(Oc3ccc(NC(=O)c4ccnn(-c5ccc(F)cc5)c4=O)cc3F)c12 [Example 18, N-(3-fluoro-4-((3-((1-methoxy-2-methylpropan-2-yl)amino)-1H-pyrazolo[3,4-b]pyridin-4-yl)oxy)phenyl)-2-(4-fluorophenyl)-3-oxo-2,3-dihydropyridazine-4-carboxamide]",131
4,"COCC1(Nc2n[nH]c3nccc(Oc4ccc(NC(=O)c5ccnn(-c6ccc(F)cc6)c5=O)cc4F)c23)CCCC1 [Example 20, N-(3-fluoro-4-((3-((1-(methoxymethyl)cyclopentyl)amino)-1H-pyrazolo[3,4-b]pyridin-4-yl)oxy)phenyl)-2-(4-fluorophenyl)-3-oxo-2,3-dihydropyridazine-4-carboxamide]",536
5,"COCC1(Nc2n[nH]c3nccc(Oc4ccc(NC(=O)c5ccnn(-c6ccc(F)cc6)c5=O)cc4F)c23)CCC1 [Example 21, N-(3-fluoro-4-((3-((1-(methoxymethyl)cyclobutyl)amino)-1H-pyrazolo[3,4-b]pyridin-4-yl)oxy)phenyl)-2-(4-fluorophenyl)-3-oxo-2,3-dihydropyridazine-4-carboxamide]",188
6,"COCCC(C)(C)Nc1n[nH]c2nccc(Oc3ccc(NC(=O)c4ccnn(-c5ccc(F)cc5)c4=O)cc3F)c12 [Example 22, N-(3-fluoro-4-((3-((4-methoxy-2-methylbutan-2-yl)amino)-1H-pyrazolo[3,4-b]pyridin-4-yl)oxy)phenyl)-2-(4-fluorophenyl)-3-oxo-2,3-dihydropyridazine-4-carboxamide]",318
7,"O=C(Nc1ccc(Oc2ccnc3[nH]nc(NCC4CCS(=O)(=O)C4)c23)c(F)c1)c1ccnn(-c2ccc(F)cc2)c1=O (stereo not drawn) [Example 24, N-(4-((3-(((1,1-dioxidotetrahydrothiophen-3-yl)methyl)amino)-1H-pyrazolo[3,4-b]pyridin-4-yl)oxy)-3-fluorophenyl)-2-(4-fluorophenyl)-3-oxo-2,3-dihydropyridazine-4-carboxamide]",120
8,"COCC(C)(C)Nc1n[nH]c2nccc(Oc3ccc(NC(=O)c4ccnn(-c5ccc(F)cc5)c4=O)nc3)c12 [Example 71, 2-(4-fluorophenyl)-N-(5-((3-((1-methoxy-2-methylpropan-2-yl)amino)-1H-pyrazolo[3,4-b]pyridin-4-yl)oxy)pyridin-2-yl)-3-oxo-2,3-dihydropyridazine-4-carboxamide]",192
9,"Cc1c(C(=O)Nc2ccc(Oc3ccnc4[nH]nc(N[C@H](C)CO)c34)c(F)c2)c(=O)n(-c2ccccc2)n1C [Example 86, (R)-N-(3-fluoro-4-((3-((1-hydroxypropan-2-yl)amino)-1H-pyrazolo[3,4-b]pyridin-4-yl)oxy)phenyl)-1,5-dimethyl-3-oxo-2-phenyl-2,3-dihydro-1H-pyrazole-4-carboxamide]",104
10,"C[C@H](CO)Nc1n[nH]c2nccc(Oc3ccc(NC(=O)c4cn(C)n(-c5ccccc5)c4=O)cc3F)c12 [Example 87, (R)-N-(3-fluoro-4-((3-((1-hydroxypropan-2-yl)amino)-1H-pyrazolo[3,4-b]pyridin-4-yl)oxy)phenyl)-1-methyl-3-oxo-2-phenyl-2,3-dihydro-1H-pyrazole-4-carboxamide]",432
11,"C[C@H](CO)Nc1n[nH]c2nccc(Oc3ccc(NC(=O)c4cn(C)n(-c5ccc(F)cc5)c4=O)cc3F)c12 [Example 88, (R)-N-(3-fluoro-4-((3-((1-hydroxypropan-2-yl)amino)-1H-pyrazolo[3,4-b]pyridin-4-yl)oxy)phenyl)-2-(4-fluorophenyl)-1-methyl-3-oxo-2,3-dihydro-1H-pyrazole-4-carboxamide]",364
12,"CC(C)n1cc(C(=O)Nc2ccc(Oc3ccnc4[nH]nc(N[C@H](C)CO)c34)c(F)c2)c(=O)n(-c2cnn(C)c2)c1=O [Example 93, (R)-N-(3-fluoro-4-((3-((1-hydroxypropan-2-yl)amino)-1H-pyrazoo[3,4-b]pyridin-4-yl)oxy)phenyl)-1-isopropyl-3-(1-methyl-1H-pyrazol-4-yl)-2,4-dioxo-1,2,3,4-tetrahydropyrimidine-5-carboxamide]",767
13,"CC(C)n1cc(C(=O)Nc2ccc(Oc3ccnc4[nH]nc(N[C@H](C)CO)c34)c(F)c2)c(=O)n(C(C)C)c1=O [Example 95, (R)-N-(3-fluoro-4-((3-((1-hydroxypropan-2-yl)amino)-1H-pyrazolo[3,4-b]pyridin-4-yl)oxy)phenyl)-1,3-diisopropyl-2,4-dioxo-1,2,3,4-tetrahydropyrimidine-5-carboxamide]",875
14,"CC(C)n1cc(C(=O)Nc2ccc(Oc3ccnc4[nH]nc(N[C@H](C)CO)c34)c(F)c2)c(=O)n(C2CCOCC2)c1=O [Example 99, (R)-N-(3-fluoro-4-((3-((1-hydroxypropan-2-yl)amino)-1H-pyrazolo[3,4-b]pyridin-4-yl)oxy)phenyl)-1-isopropyl-2,4-dioxo-3-(tetrahydro-2H-pyran-4-yl)-1,2,3,4-tetrahydropyrimidine-5-carboxamide]",546
15,"C[C@H](CO)Nc1n[nH]c2nccc(Oc3ccc(NC(=O)C4CCCN(c5ccc(F)cc5)C4=O)cc3F)c12 (stereo partly drawn) [Example 101, N-(3-fluoro-4-((3-(((R)-1-hydroxypropan-2-yl)amino)-1H-pyrazolo[3,4-b]pyridin-4-yl)oxy)phenyl)-1-(4-fluorophenyl)-2-oxopiperidine-3-carboxamide]",198
16,"C[C@H](CO)Nc1n[nH]c2nccc(Oc3ccc(NC(=O)c4cc5c(n(-c6ccc(F)cn6)c4=O)CCCC5=O)cc3F)c12 [Example 111, (R)-N-(3-fluoro-4-((3-((1-hydroxypropan-2-yl)amino)-1H-pyrazolo[3,4-b]pyridin-4-yl)oxy)phenyl)-1-(5-fluoropyridin-2-yl)-2,5-dioxo-1,2,5,6,7,8-hexahydroquinoine-3-carboxamide]",137
17,"CCn1nc(C(=O)Nc2ccc(Oc3ccnc4[nH]nc(N[C@@H](C)CO)c34)c(F)c2)c(=O)n(-c2ccc(F)c(F)c2)c1=O [Example 132, (S)-4-(3,4-difluorophenyl)-2-ethyl-N-(3-fluoro-4-((3-((1-hydroxypropan-2-yl)amino)-1H-pyrazolo[3,4-b]pyridin-4-yl)oxy)phenyl)-3,5-dioxo-2,3,4,5-tetrahydro-1,2,4-triazine-6-carboxamide]",348
18,"CCn1nc(C(=O)Nc2ccc(Oc3ccnc4[nH]nc(N[C@H](C)CO)c34)c(F)c2)c(=O)n(-c2ccc(F)c(F)c2)c1=O [Example 133, (R)-4-(3,4-difluorophenyl)-2-ethyl-N-(3-fluoro-4-((3-((1-hydroxypropan-2-yl)amino)-1H-pyrazolo[3,4-b]pyridin-4-yl)oxy)phenyl)-3,5-dioxo-2,3,4-5-tetrahydro-1,2,4-triazine-6-carboxamide]",130
19,"CCn1cc(C(=O)Nc2ccc(Oc3ccnc4[nH]nc(NC(C)(C)COC)c34)c(F)c2)c(=O)n(-c2ccc(F)cc2)c1=O [Example 157, 1-ethyl-N-(3-fluoro-4-((3-((1-methoxy-2-methylpropan-2-yl)amino)-1H-pyrazolo[3,4-b]pyridin-4-yl)oxy)phenyl)-3-(4-fluorophenyl)-2,4-dioxo-1,2,3,4-tetrahydropyrimidine-5-carboxamide]",118
20,"COCC(C)(C)Nc1n[nH]c2nccc(Oc3ccc(NC(=O)c4cn(C)c(=O)n(-c5ccc(F)cc5)c4=O)cc3F)c12 [Example 158, N-(3-fluoro-4-((3-((1-methoxy-2-methylpropan-2-yl)amino)-1H-pyrazolo[3,4-b]pyridin-4-yl)oxy)phenyl)-3-(4-fluorophenyl)-1-methyl-2,4-dioxo-1,2,3,4-tetrahydropyrimidine-5-carboxamide]",104
21,"COCC(C)(C)Nc1n[nH]c2nccc(Oc3ccc(NC(=O)c4cn(CCO)c(=O)n(-c5ccc(F)cc5)c4=O)cc3F)c12 [Example 159, N-(3-fluoro-4-((3-((1-methoxy-2-methylpropan-2-yl)amino)-1H-pyrazolo[3,4-b]pyridin-4-yl)oxy)phenyl)-3-(4-fluorophenyl)-1-(2-hydroxyethyl)-2,4-dioxo-1,2,3,4-tetrahydropyrimidine-5-carboxamide]",420
22,"CC(CC(F)F)Nc1n[nH]c2nccc(Oc3ccc(NC(=O)c4cn(C)cc(-c5ccc(F)cc5)c4=O)nc3)c12 (stereo not drawn) [Example 167, N-(5-((3-((4,4-difluorobutan-2-yl)amino)-1H-pyrazolo[3,4-b]pyridin-4-yl)oxy)pyridin-2-yl)-5-(4-fluorophenyl)-1-methyl-4-oxo-1,4-dihydropyridine-3-carboxamide]",224
23,"Cc1cc(C(=O)Nc2ccc(Oc3ccnc4[nH]nc(NC(C)CC(F)F)c34)cn2)c(=O)n(-c2ccc(F)cc2)c1 (stereo not drawn) [Example 168, N-(5-((3-((4,4-difluorobutan-2-yl)amino)-1H-pyrazolo[3,4-b]pyridin-4-yl)oxy)pyridin-2-yl)-1-(4-fluorophenyl)-5-methyl-2-oxo-1,2-dihydropyridine-3-carboxamide]",248
24,"CCOC[C@H](C)Nc1n[nH]c2nccc(Oc3ccc(NC(=O)c4cc(C)cn(-c5ccc(F)cc5)c4=O)cc3F)c12 [Example 172, (S)-N-(4-((3-((1-ethoxypropan-2-yl)amino)-1H-pyrazolo[3,4-b]pyridin-4-yl)oxy)-3-fluorophenyl)-1-(4-fluorophenyl)-5-methyl-2-oxo-1,2-dihydropyridine-3-carboxamide]",133

# Source: patent publication US11104676B2 (priority 2018, dated 2021)
